Experimental data reported in patent publication US8828696B2, “Use of Penicillin G Procaine as a selective antimicrobial agent in the production of alcohol by fermentation” (Lallemand Specialites, Inc, priority 2008, dated 2014).
Several values for one entry are separate records, joined by “and”; a condition that tells them apart may be missing. Identical values can stand only once. Like-named read-outs stand apart in the source and are kept apart here.

Tests used:
[1] = test system: Saccharomyces cerevisiae yeast; type: cell-based
Experimental: A study was conducted to determine the degree of impact of the fermentation antimicrobial Penicillin G Procaine and Penicillin G potassium during alcohol production by fermentation. The antimicrobial impact was inferred by conducting a series of fermentations and measuring if the above said antibiotics interfered with the cell growth and the fermentation function of Saccharomyces cerevisiae yeast used in the fermentation phase. This study provided analysis of what impact, if any, the Penicillin G Procaine or Penicillin G Potassium has on the yeast during lab scale fermentations, specifically BioFerm® XR yeast from North American Bioproducts Corporation (NABC). This study observed the ability of yeast to replicate and ferment a corn mash substrate with and without the presence of Penicillin G Procaine or Penicillin G Potassium.
This study was set up in a series of fermentation vessels. All antibiotic concentrations were tested in triplicate. Cell counts were done on one flask for each treatment at 12, 24, 36 and 48 hours and testing of the fermentation reactions by HPLC was also performed at 12, 24, 36 and 48 hours. The experiment was set as follows:
1. Antibiotic solutions were prepared to provide a sterile 1 and 10 μg/ml solutions.
2. Antibiotic solutions tested were as follows:
3. Fermentations were set up using 31% solids corn mash using saccharifying enzymes and the following procedure:
A. Yeast Conditioning: • 1. Add 2 g yeast to 10 ml sterile water for each 3 flasks to test, (14 g yeast to 70 ml water) into a sterile 250 ml flask and place in water bath set to 100° F. • 2. Incubate at 100° F. for 30 minutes with occasional mixing. • 3. Remove flasks from water bath and divide suspension between the all flasks for the trial.
B. Fermentation Procedure • 1. To prepared mash, add the following. • a. Add 0.58 g urea/liter mash and mix. • b. Add 0.2 ml GA per liter and mix. • 2. Remove sample for background HPLC testing. • 3. Add antibiotic solution to labeled sterile 250 ml flasks. • 4. Add hydrated yeast suspension to mash and mix well. • 5. Add sterile stir bar to each flask and add about 150 ml mash into each 250 ml flask for a total of 21 flasks. • 6. Cover each flask with a gas trap in a sterilized stopper. • 7. Place in a 33° C. water bath with continuous mixing at 280 rpm at 75% power. • 8. Remove sample at 12 hr interval to perform cell count, viability and budding. • 9. Incubate sample up to 48 hours, enough time for complete fermentation • 10. Collect samples at the following times for cell counts and HPLC testing: 12 hours; 24 hours; 36 hours and 48 hours

contaminating bacteria = assay: Alcohol production plant trial, fermentor drop data (50 m/g/y dry grind, corn); type: cell-based
Experimental: This trial was conducted at a 50 million gallon per year (m/g/y) dry grind fuel alcohol production facility utilizing corn as a fermentation substrate. Batch yeast propagation and fermentation process were utilized. Antimicrobials were added to the fermentor during the fill cycle at approximately 30% fill.
No other changes were made to the process or chemical additions that would influence the fermentation kinetics monitored during 3 sets of fermentor batches listed below. The fermentation data was accumulated at the end (drop) of the fermentation process for each of the fermentors. Fermentation kinetics was measured for three batch cycles including:
Set 1—“Pre Penicillin G Procaine trial”-10 fermentor batches using a level of 0.5 ppm Virginiamycin. See results in Table 2.
Set 2—“Penicillin G Procaine trial”-10 fermentor batches using a level of 0.5 ppm of Penicillin G Procaine. See results in Table 3.
Set 3—“Post Penicillin G Procaine trial”-10 fermentor batches using a level of 0.5 ppm of Virginiamycin. See results in Table 4.

[2] = 5 ppm, 12 hr fermentation sample
[3] = 5 ppm, 24 hr fermentation sample
[4] = 5 ppm, 36 hr fermentation sample
[5] = 5 ppm, 48 hr fermentation sample
[6] = 5 ppm, average of 12, 24, 36 and 48 hour samples
[7] = 15 ppm, 12 hr fermentation sample
[8] = 15 ppm, 24 hr fermentation sample
[9] = 15 ppm, 36 hr fermentation sample
[10] = 15 ppm, 48 hr fermentation sample
[11] = 15 ppm, average of 12, 24, 36 and 48 hour samples
[12] = 30 ppm, 12 hr fermentation sample
[13] = 30 ppm, 24 hr fermentation sample
[14] = 30 ppm, 36 hr fermentation sample
[15] = 30 ppm, 48 hr fermentation sample
[16] = 30 ppm, average of 12, 24, 36 and 48 hour samples
[17] = average for all three trials (5, 15, 30 ppm), 12-48 hour samples
[18] = Penicillin G Procaine trial 0.5 ppm compared with Virginiamycin sets
[19] = Set 2 'Penicillin G Procaine trial', 0.5 ppm, 10 Batch average
[20] = Set 2 'Penicillin G Procaine trial', 0.5 ppm, drop data, single fermentor batch

CC1(C)S[C@@H]2[C@H](NC(=O)Cc3ccccc3)C(=O)N2[C@H]1C(=O)O.CCN(CC)CCOC(=O)c1ccc(N)cc1 [Penicillin G Procaine]
viable yeast cell count ([1]; 5 ppm, 12 hours, total cell count x % viability): 535
% B (% budding) [1, 2]: 15.0%
% V (% viability) [1, 2]: 89%
CC (cell count) [1, 2]: 601
viable yeast cell count ([1]; 5 ppm, 24 hours, total cell count x % viability): 489
% B (% budding) [1, 3]: 7.9%
% V (% viability) [1, 3]: 88%
CC (cell count) [1, 3]: 556
viable yeast cell count ([1]; 5 ppm, 36 hours, total cell count x % viability): 432
% B (% budding) [1, 4]: 9.2%
% V (% viability) [1, 4]: 83%
CC (cell count) [1, 4]: 521
viable yeast cell count ([1]; 5 ppm, 48 hours, total cell count x % viability): 404
% B (% budding) [1, 5]: 8.0%
% V (% viability) [1, 5]: 75%
CC (cell count) [1, 5]: 538
viable yeast cell count ([1]; 5 ppm, Average 12-48 hours): 465
A % B (average % budding) [1, 6]: 10.0%
A % V (average % viability) [1, 6]: 83.8%
ACC (average cell count) [1, 6]: 554
viable yeast cell count ([1]; 15 ppm, 12 hours, total cell count x % viability): 494
% B (% budding) [1, 7]: 17.7%
% V (% viability) [1, 7]: 86%
CC (cell count) [1, 7]: 574
viable yeast cell count ([1]; 15 ppm, 24 hours, total cell count x % viability): 528
% B (% budding) [1, 8]: 7.8%
% V (% viability) [1, 8]: 91%
CC (cell count) [1, 8]: 580
viable yeast cell count ([1]; 15 ppm, 36 hours, total cell count x % viability): 410
% B (% budding) [1, 9]: 7.3%
% V (% viability) [1, 9]: 78%
CC (cell count) [1, 9]: 526
viable yeast cell count ([1]; 15 ppm, 48 hours, total cell count x % viability): 385
% B (% budding) [1, 10]: 9.0%
% V (% viability) [1, 10]: 74%
CC (cell count) [1, 10]: 520
viable yeast cell count ([1]; 15 ppm, Average 12-48 hours): 454
A % B (average % budding) [1, 11]: 10.4%
A % V (average % viability) [1, 11]: 82.3%
ACC (average cell count) [1, 11]: 550
viable yeast cell count ([1]; 30 ppm, 12 hours, total cell count x % viability): 528
% B (% budding) [1, 12]: 14.8%
% V (% viability) [1, 12]: 85%
CC (cell count) [1, 12]: 621
viable yeast cell count ([1]; 30 ppm, 24 hours, total cell count x % viability): 496
% B (% budding) [1, 13]: 10.3%
% V (% viability) [1, 13]: 89%
CC (cell count) [1, 13]: 557
viable yeast cell count ([1]; 30 ppm, 36 hours, total cell count x % viability): 400
% B (% budding) [1, 14]: 7.0%
% V (% viability) [1, 14]: 78%
CC (cell count) [1, 14]: 513
viable yeast cell count ([1]; 30 ppm, 48 hours, total cell count x % viability): 385
% B (% budding) [1, 15]: 6.0%
% V (% viability) [1, 15]: 78%
CC (cell count) [1, 15]: 493
viable yeast cell count ([1]; 30 ppm, Average 12-48 hours): 452
A % B (average % budding) [1, 16]: 9.5%
A % V (average % viability) [1, 16]: 82.5%
ACC (average cell count) [1, 16]: 546
A % B (average % budding) [1, 17]: 10.0%
A % V (average % viability) [1, 17]: 82.8%
ACC (average cell count) [1, 17]: 550
viable yeast cell count ([1]; average for all three trials (5, 15, 30 ppm), 12 hours): 519
viable yeast cell count ([1]; average for all three trials (5, 15, 30 ppm), 24 hours): 504
viable yeast cell count ([1]; average for all three trials (5, 15, 30 ppm), 36 hours): 414
viable yeast cell count ([1]; average for all three trials (5, 15, 30 ppm), 48 hours): 391
viable yeast cell count ([1]; average for all three trials (5, 15, 30 ppm), Average 12-48 hours): 457
decrease of lactic acid production (contaminating bacteria; [18]): about a quarter percent
increase of ethanol production (contaminating bacteria; [18]): about half a percent
production increase of ethanol per fermentor (contaminating bacteria; [18]): about 2,500 gallons
Acetic % (contaminating bacteria; [19]): 0.03%
EtOH v/v % (contaminating bacteria; [19]): 15.98 v/v %
Glucose % (contaminating bacteria; [19]): 0.28%
Lactic % (contaminating bacteria; [19]): 0.24%
Acetic % (contaminating bacteria; [20]): 0.03% and 0.02% and 0.05% and 0.04%
Glucose % (contaminating bacteria; [20]): 0.28% and 0.30% and 0.27% and 0.29%
Lactic % (contaminating bacteria; [20]): 0.28% and 0.19% and 0.21% and 0.26% and 0.25% and 0.23% and 0.24%
